# From PubChem BioAssay (NCI)
# Values joined by “and” are separate entries in the source; they are usually repeats but may differ in a detail not shown here. Equal values may be shown once.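 Five concentrations, 48 hours, 96-well plates. GI50 is the concentration that inhibits growth by half. Definition used: TGI = concentration required for complete inhibition of growth.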
# Columns and labels:
# Experiment in all cases: growth of human tumour cells (NCI), 48 h
# 786-0 renal = tested on: 786-0 renal
# A549 NSCLC = tested on: A549 NSCLC
# ACHN renal = tested on: ACHN renal
# BT-549 breast = tested on: BT-549 breast
# CAKI-1 renal = tested on: CAKI-1 renal
# CCRF-CEM leukemia = tested on: CCRF-CEM leukemia
# COLO 205 colon = tested on: COLO 205 colon
# DU-145 prostate = tested on: DU-145 prostate
# EKVX NSCLC = tested on: EKVX NSCLC
# HCC-2998 colon = tested on: HCC-2998 colon
# HCT-116 colon = tested on: HCT-116 colon
# HCT-15 colon = tested on: HCT-15 colon
# HL-60(TB) leukemia = tested on: HL-60(TB) leukemia
# HOP-62 NSCLC = tested on: HOP-62 NSCLC
# HOP-92 NSCLC = tested on: HOP-92 NSCLC
# HS 578T breast = tested on: HS 578T breast
# HT29 colon = tested on: HT29 colon
# IGROV1 ovarian = tested on: IGROV1 ovarian
# K-562 leukemia = tested on: K-562 leukemia
# KM12 colon = tested on: KM12 colon
# LOX IMVI melanoma = tested on: LOX IMVI melanoma
# M14 melanoma = tested on: M14 melanoma
# MALME-3M melanoma = tested on: MALME-3M melanoma
# MCF7 breast = tested on: MCF7 breast
# MDA-MB-231 breast = tested on: MDA-MB-231 breast
# MDA-MB-435 = tested on: MDA-MB-435
# MOLT-4 leukemia = tested on: MOLT-4 leukemia
# NCI-H226 lung = tested on: NCI-H226 lung
# NCI-H23 lung = tested on: NCI-H23 lung
# NCI-H460 lung = tested on: NCI-H460 lung
# NCI-H522 lung = tested on: NCI-H522 lung
# NCI/ADR-RES ovarian = tested on: NCI/ADR-RES ovarian
# OVCAR-3 ovarian = tested on: OVCAR-3 ovarian
# OVCAR-4 ovarian = tested on: OVCAR-4 ovarian
# OVCAR-5 ovarian = tested on: OVCAR-5 ovarian
# OVCAR-8 ovarian = tested on: OVCAR-8 ovarian
# PC-3 prostate = tested on: PC-3 prostate
# RPMI-8226 leukemia = tested on: RPMI-8226 leukemia
# RXF 393 renal = tested on: RXF 393 renal
# SF-268 CNS = tested on: SF-268 CNS
# SF-295 CNS = tested on: SF-295 CNS
# SF-539 CNS = tested on: SF-539 CNS
# SK-MEL-2 melanoma = tested on: SK-MEL-2 melanoma
# SK-MEL-28 melanoma = tested on: SK-MEL-28 melanoma
# SK-MEL-5 melanoma = tested on: SK-MEL-5 melanoma
# SK-OV-3 ovarian = tested on: SK-OV-3 ovarian
# SN12C renal = tested on: SN12C renal
# SNB-19 CNS = tested on: SNB-19 CNS
# SNB-75 CNS = tested on: SNB-75 CNS
# SR leukemia = tested on: SR leukemia
# SW-620 colon = tested on: SW-620 colon
# T-47D breast = tested on: T-47D breast
# TK-10 renal = tested on: TK-10 renal
# U251 CNS = tested on: U251 CNS
# UACC-257 melanoma = tested on: UACC-257 melanoma
# UACC-62 melanoma = tested on: UACC-62 melanoma
# UO-31 renal = tested on: UO-31 renal
smiles,measurement,setting,value
CN1CCC(C(=O)Nc2n[nH]c3nc(-c4ccc(O)cc4)c(Br)cc23)CC1,GI50,786-0 renal,3.58 µM and 3.13 µM
same,TGI,786-0 renal,21.4 µM and 24.8 µM
same,GI50,A549 NSCLC,5.72 µM and 7.38 µM
same,TGI,A549 NSCLC,> 25 µM
same,GI50,ACHN renal,5.37 µM and 6.3 µM
same,TGI,ACHN renal,> 25 µM
same,GI50,BT-549 breast,1.6 µM and 2.31 µM
same,TGI,BT-549 breast,16.4 µM and 16.9 µM
same,GI50,CAKI-1 renal,8.62 µM and 6.77 µM
same,TGI,CAKI-1 renal,> 25 µM
same,GI50,CCRF-CEM leukemia,0.835 µM and 0.996 µM
same,TGI,CCRF-CEM leukemia,> 25 µM
same,GI50,COLO 205 colon,1 µM and 1.3 µM
same,TGI,COLO 205 colon,3.7 µM and 3.04 µM
same,GI50,DU-145 prostate,1.69 µM and 1.18 µM
same,TGI,DU-145 prostate,> 25 µM
same,GI50,EKVX NSCLC,6.62 µM and 2.51 µM
same,TGI,EKVX NSCLC,> 25 µM
same,GI50,HCC-2998 colon,1.08 µM and 1.32 µM
same,TGI,HCC-2998 colon,5.72 µM and 8.32 µM
same,GI50,HCT-116 colon,0.776 µM and 0.855 µM
same,TGI,HCT-116 colon,> 25 µM
same,GI50,HCT-15 colon,6.77 µM and 9.83 µM
same,TGI,HCT-15 colon,> 25 µM
same,GI50,HL-60(TB) leukemia,0.988 µM and 0.333 µM
same,TGI,HL-60(TB) leukemia,4 µM and 1.25 µM
same,GI50,HOP-62 NSCLC,2.39 µM and 2.43 µM
same,TGI,HOP-62 NSCLC,> 22.6 µM and 15.8 µM
same,GI50,HOP-92 NSCLC,0.97 µM
same,TGI,HOP-92 NSCLC,5.04 µM
same,GI50,HS 578T breast,1.15 µM and 0.208 µM
same,TGI,HS 578T breast,> 15.1 µM
same,GI50,HT29 colon,4.11 µM and 5.33 µM
same,TGI,HT29 colon,12.1 µM and 16.1 µM
same,GI50,IGROV1 ovarian,5.13 µM and 6.36 µM
same,TGI,IGROV1 ovarian,> 25 µM
same,GI50,K-562 leukemia,1.04 µM and 0.404 µM
same,TGI,K-562 leukemia,> 25 µM
same,GI50,KM12 colon,1.82 µM and 1.49 µM
same,TGI,KM12 colon,> 25 µM
same,GI50,LOX IMVI melanoma,0.574 µM and 0.661 µM
same,TGI,LOX IMVI melanoma,5.45 µM and > 12.2 µM
same,GI50,M14 melanoma,3.47 µM and 4.68 µM
same,TGI,M14 melanoma,8.42 µM and 9.62 µM
same,GI50,MALME-3M melanoma,3.56 µM and 4.97 µM
same,TGI,MALME-3M melanoma,11.1 µM and 11.7 µM
same,GI50,MCF7 breast,0.557 µM and 0.724 µM
same,TGI,MCF7 breast,> 22 µM
same,GI50,MDA-MB-231 breast,1.4 µM and 3.97 µM
same,TGI,MDA-MB-231 breast,11.3 µM and 16 µM
same,GI50,MDA-MB-435,1.57 µM and 1.45 µM
same,TGI,MDA-MB-435,5.58 µM and 5.61 µM
same,GI50,MOLT-4 leukemia,1.88 µM and 1.51 µM
same,TGI,MOLT-4 leukemia,> 25 µM and 18.9 µM
same,GI50,NCI-H226 lung,0.674 µM and 1.06 µM
same,TGI,NCI-H226 lung,8.55 µM and > 15.5 µM
same,GI50,NCI-H23 lung,4.19 µM and 6.88 µM
same,TGI,NCI-H23 lung,16.1 µM and > 25 µM
same,GI50,NCI-H460 lung,1.97 µM and 1.1 µM
same,TGI,NCI-H460 lung,> 25 µM
same,GI50,NCI-H522 lung,0.599 µM and 0.603 µM
same,TGI,NCI-H522 lung,1.52 µM and 1.62 µM
same,GI50,NCI/ADR-RES ovarian,24.9 µM and > 25 µM
same,TGI,NCI/ADR-RES ovarian,> 25 µM
same,GI50,OVCAR-3 ovarian,0.815 µM and 0.504 µM
same,TGI,OVCAR-3 ovarian,> 11.6 µM and 1.44 µM
same,GI50,OVCAR-4 ovarian,0.986 µM and 1.17 µM
same,TGI,OVCAR-4 ovarian,> 12.4 µM and 6.27 µM
same,GI50,OVCAR-5 ovarian,7.83 µM and 10.4 µM
same,TGI,OVCAR-5 ovarian,> 25 µM
same,GI50,OVCAR-8 ovarian,0.965 µM and 1.77 µM
same,TGI,OVCAR-8 ovarian,> 20.2 µM
same,GI50,PC-3 prostate,1.08 µM and 1.64 µM
same,TGI,PC-3 prostate,> 22.2 µM
same,GI50,RPMI-8226 leukemia,9.78 µM and 24.4 µM
same,TGI,RPMI-8226 leukemia,> 25 µM
same,GI50,RXF 393 renal,0.442 µM and 0.485 µM
same,TGI,RXF 393 renal,1.4 µM and 1.6 µM
same,GI50,SF-268 CNS,1.14 µM and 0.863 µM
same,TGI,SF-268 CNS,9.27 µM and 4.68 µM
same,GI50,SF-295 CNS,3.94 µM and 3.41 µM
same,TGI,SF-295 CNS,20.1 µM and 22.3 µM
same,GI50,SF-539 CNS,0.647 µM and 0.946 µM
same,TGI,SF-539 CNS,3.23 µM and 8.15 µM
same,GI50,SK-MEL-2 melanoma,0.692 µM and 1.66 µM
same,TGI,SK-MEL-2 melanoma,2.32 µM and 5.75 µM
same,GI50,SK-MEL-28 melanoma,1.21 µM and 2.46 µM
same,TGI,SK-MEL-28 melanoma,6.15 µM and 7.56 µM
same,GI50,SK-MEL-5 melanoma,0.599 µM and 1.3 µM
same,TGI,SK-MEL-5 melanoma,2.3 µM and 4.14 µM
same,GI50,SK-OV-3 ovarian,1.19 µM and 1.28 µM
same,TGI,SK-OV-3 ovarian,> 25 µM
same,GI50,SN12C renal,1.76 µM and 4.18 µM
same,TGI,SN12C renal,> 25 µM
same,GI50,SNB-19 CNS,1.12 µM and 2.97 µM
same,TGI,SNB-19 CNS,> 25 µM
same,GI50,SNB-75 CNS,0.207 µM and 0.537 µM
same,TGI,SNB-75 CNS,8.38 µM and 7.52 µM
same,GI50,SR leukemia,0.701 µM and 0.306 µM
same,TGI,SR leukemia,> 25 µM
same,GI50,SW-620 colon,0.975 µM and 0.254 µM
same,TGI,SW-620 colon,> 25 µM
same,GI50,T-47D breast,1.12 µM and 1.72 µM
same,TGI,T-47D breast,> 16.9 µM
same,GI50,TK-10 renal,3.16 µM and 6.15 µM
same,TGI,TK-10 renal,15.3 µM and 17.1 µM
same,GI50,U251 CNS,0.661 µM and 0.848 µM
same,TGI,U251 CNS,> 25 µM
same,GI50,UACC-257 melanoma,4.3 µM and 6.17 µM
same,TGI,UACC-257 melanoma,12.3 µM and 14.6 µM
same,GI50,UACC-62 melanoma,2.85 µM and 3.83 µM
same,TGI,UACC-62 melanoma,6.87 µM and 8.81 µM
same,GI50,UO-31 renal,6.85 µM and 7.86 µM
same,TGI,UO-31 renal,> 22.4 µM
